# The source made the active and inactive calls. No cut-off for these calls is given here. Bridge positions count the residues as written; N and C are the ends. Square brackets hold non-standard residues; d marks the D form. Peptide text beside a SMILES is read from it. NMeF = CN[C@@H](Cc1ccccc1)C(=O)O
# How the values were obtained:
# [1] = target: T1, Inactive tyrosine-protein kinase transmembrane receptor ROR1 (Homo sapiens, UniProt Q01973); experiment: Binding affinity to human ROR1 expressed in HEK293 cells by cell based assay
# [2] = target: T1, Inactive tyrosine-protein kinase transmembrane receptor ROR1; experiment: Binding affinity to full length human His-tagged ROR1 (937 residues ) assessed as dissociation constant by SPR analysis
# [3] = target: Tyrosine-protein kinase transmembrane receptor ROR2 (Homo sapiens, UniProt Q01974); experiment: Binding affinity to full length human His-tagged ROR2 (943 residues ) assessed as dissociation constant by SPR analysis
# [4] = target: T1, Inactive tyrosine-protein kinase transmembrane receptor ROR1; experiment: Induction of ROR1 internalization in human 786-0; assay type: cell-based
# [5] = target: T1, Inactive tyrosine-protein kinase transmembrane receptor ROR1; experiment: Induction of ROR1 internalization in human MIA PaCa-2; assay type: cell-based
# ASPC1 = experiment: Antiproliferative activity in human ASPC1 cells; assay type: functional, cell-based
# JeKo-1 = experiment: Antiproliferative activity in human JeKo-1 cells; assay type: functional, cell-based
# HEK293 = experiment: Antiproliferative activity in HEK293 cells harbouring ROR1; assay type: toxicity, cell-based; details: Homo sapiens
# 786-0 = experiment: Antiproliferative activity in human 786-0 cells; assay type: functional, cell-based
# T1 sequence (Q01973 whole entry): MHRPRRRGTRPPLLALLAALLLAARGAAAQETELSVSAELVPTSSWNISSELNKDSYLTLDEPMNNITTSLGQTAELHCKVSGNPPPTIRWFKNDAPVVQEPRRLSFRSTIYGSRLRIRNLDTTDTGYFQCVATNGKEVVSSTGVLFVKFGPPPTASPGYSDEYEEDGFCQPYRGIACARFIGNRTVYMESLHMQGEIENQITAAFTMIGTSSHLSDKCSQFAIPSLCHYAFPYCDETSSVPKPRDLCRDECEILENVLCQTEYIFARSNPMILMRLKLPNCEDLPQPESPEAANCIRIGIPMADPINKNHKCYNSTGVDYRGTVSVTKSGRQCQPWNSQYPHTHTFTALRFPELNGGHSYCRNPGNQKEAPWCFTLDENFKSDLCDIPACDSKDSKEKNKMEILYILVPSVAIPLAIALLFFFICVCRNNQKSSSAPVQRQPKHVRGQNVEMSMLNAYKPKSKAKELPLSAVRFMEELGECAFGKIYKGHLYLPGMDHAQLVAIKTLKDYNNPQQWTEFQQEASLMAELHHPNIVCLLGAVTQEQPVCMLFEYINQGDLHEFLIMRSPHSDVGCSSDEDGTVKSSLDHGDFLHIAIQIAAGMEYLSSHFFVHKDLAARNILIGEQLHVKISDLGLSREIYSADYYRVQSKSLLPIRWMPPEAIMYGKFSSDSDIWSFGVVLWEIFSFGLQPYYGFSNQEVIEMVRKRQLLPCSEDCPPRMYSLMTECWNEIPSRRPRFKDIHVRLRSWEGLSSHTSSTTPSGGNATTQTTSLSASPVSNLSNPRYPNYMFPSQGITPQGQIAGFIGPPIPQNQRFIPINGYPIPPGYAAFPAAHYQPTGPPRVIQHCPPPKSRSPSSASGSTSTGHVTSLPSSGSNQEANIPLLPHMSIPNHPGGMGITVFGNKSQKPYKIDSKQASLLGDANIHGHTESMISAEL
# Tyrosine-protein kinase transmembrane receptor ROR2, sequence (Q01974 whole entry): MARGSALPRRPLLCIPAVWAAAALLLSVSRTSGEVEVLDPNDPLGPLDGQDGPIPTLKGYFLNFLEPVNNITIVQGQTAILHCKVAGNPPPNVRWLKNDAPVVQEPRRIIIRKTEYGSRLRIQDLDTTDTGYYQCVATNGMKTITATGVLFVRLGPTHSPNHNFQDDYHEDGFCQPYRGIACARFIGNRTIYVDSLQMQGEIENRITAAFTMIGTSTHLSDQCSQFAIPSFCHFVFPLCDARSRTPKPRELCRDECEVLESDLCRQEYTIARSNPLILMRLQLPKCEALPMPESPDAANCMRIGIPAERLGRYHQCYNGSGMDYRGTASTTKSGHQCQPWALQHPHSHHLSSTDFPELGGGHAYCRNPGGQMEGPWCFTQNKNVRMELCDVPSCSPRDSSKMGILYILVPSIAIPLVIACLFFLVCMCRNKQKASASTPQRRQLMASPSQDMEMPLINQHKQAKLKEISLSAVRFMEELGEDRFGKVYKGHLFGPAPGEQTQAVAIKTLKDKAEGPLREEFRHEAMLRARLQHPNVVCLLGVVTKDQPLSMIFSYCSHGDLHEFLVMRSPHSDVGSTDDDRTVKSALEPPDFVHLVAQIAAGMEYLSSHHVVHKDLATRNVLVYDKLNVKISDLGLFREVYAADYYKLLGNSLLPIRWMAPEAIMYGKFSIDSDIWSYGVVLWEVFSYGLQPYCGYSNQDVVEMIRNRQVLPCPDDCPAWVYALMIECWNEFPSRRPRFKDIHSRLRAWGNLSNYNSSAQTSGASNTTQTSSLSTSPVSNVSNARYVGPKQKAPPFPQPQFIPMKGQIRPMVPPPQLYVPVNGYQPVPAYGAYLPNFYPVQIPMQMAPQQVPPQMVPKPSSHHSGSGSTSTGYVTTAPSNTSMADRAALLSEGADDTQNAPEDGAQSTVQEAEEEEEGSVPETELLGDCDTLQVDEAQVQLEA
compound,measurement,setting,value
CC(C)C[C@@H]1NC(=O)[C@H](Cc2ccc(O)cc2)NC(=O)[C@H](Cc2ccccc2)NC(=O)CSC[C@@H](C(=O)NCC(N)=O)NC(=O)[C@H](CC(C)C)NC(=O)[C@H](Cc2ccccc2)N(C)C(=O)[C@H](Cc2ccc(O)cc2)NC(=O)[C@H](Cc2c[nH]c3ccccc23)NC(=O)CNC(=O)[C@H](CO)NC(=O)[C@H](Cc2ccc(O)cc2)NC(=O)[C@H](C)NC1=O ({CH2CO}-FYLAYSGWY[NMeF]LCG-NH2; thioether N-12),IC50,[1],12.3 nM
CC(C)C[C@@H]1NC(=O)[C@H](Cc2ccccc2)N(C)C(=O)[C@H](Cc2ccc(O)cc2)NC(=O)[C@H](Cc2c[nH]c3ccccc23)NC(=O)CNC(=O)[C@H](CO)NC(=O)[C@H](Cc2ccc(O)cc2)NC(=O)[C@H](C(C)C)NC(=O)[C@@H]2CCCN2C(=O)[C@H](Cc2ccc(O)cc2)NC(=O)[C@H](Cc2ccccc2)NC(=O)CSC[C@@H](C(=O)NCC(N)=O)NC1=O ({CH2CO}-FYPVYSGWY[NMeF]LCG-NH2; thioether N-12),IC50,[1],5.2 nM
CC(C)C[C@@H]1NC(=O)[C@H](Cc2ccc(O)cc2)NC(=O)[C@H](Cc2ccccc2)NC(=O)CSC[C@@H](C(=O)NCC(N)=O)NC(=O)[C@H](CC(C)C)NC(=O)[C@H](Cc2ccccc2)N(C)C(=O)[C@H](Cc2ccc(O)cc2)NC(=O)[C@H](Cc2c[nH]c3ccccc23)NC(=O)CNC(=O)[C@H](CCC(N)=O)NC(=O)[C@H](Cc2ccc(O)cc2)NC(=O)[C@H](C(C)C)NC1=O ({CH2CO}-FYLVYQGWY[NMeF]LCG-NH2; thioether N-12),IC50,[1],7.2 nM
CC(C)C[C@@H]1NC(=O)[C@H](Cc2ccc(O)cc2)NC(=O)[C@H](Cc2ccccc2)NC(=O)CSC[C@@H](C(=O)NCC(N)=O)NC(=O)[C@H](CC(C)C)NC(=O)[C@H](Cc2ccccc2)N(C)C(=O)[C@H](Cc2ccc(O)cc2)NC(=O)[C@H](Cc2c[nH]c3ccccc23)NC(=O)CNC(=O)[C@H](Cc2ccc(O)cc2)NC(=O)[C@H](Cc2ccc(O)cc2)NC(=O)[C@H](C(C)C)NC1=O ({CH2CO}-FYLVYYGWY[NMeF]LCG-NH2; thioether N-12),IC50,[1],8.6 nM
CC(C)C[C@@H]1NC(=O)[C@H](Cc2ccc(O)cc2)NC(=O)[C@H](Cc2ccccc2)NC(=O)CSC[C@@H](C(=O)NCC(=O)NCC(=O)NCC(=O)N[C@H](CCCCNC(=O)c2ccc3c(c2)C(=O)OC32c3ccc(O)cc3Oc3cc(O)ccc32)C(N)=O)NC(=O)[C@H](CC(C)C)NC(=O)[C@H](Cc2ccccc2)N(C)C(=O)[C@H](Cc2ccc(O)cc2)NC(=O)[C@H](Cc2c[nH]c3ccccc23)NC(=O)CNC(=O)[C@H](CO)NC(=O)[C@H](Cc2ccc(O)cc2)NC(=O)[C@H](C(C)C)NC1=O,Kd,[2],34 nM
same,Kd,[3],> 100 nM
same,Activity,[4],inactive
same,Activity,[5],inactive
CC(C)C[C@@H]1NC(=O)[C@H](Cc2ccc(O)cc2)NC(=O)[C@H](Cc2ccccc2)NC(=O)CSC[C@@H](C(=O)NCC(=O)NCC(=O)NCC(=O)NCC(=O)O)NC(=O)[C@H](CC(C)C)NC(=O)[C@H](Cc2ccccc2)N(C)C(=O)[C@H](Cc2ccc(O)cc2)NC(=O)[C@H](Cc2c[nH]c3ccccc23)NC(=O)CNC(=O)[C@H](CO)NC(=O)[C@H](Cc2ccc(O)cc2)NC(=O)[C@H](C(C)C)NC1=O ({CH2CO}-FYLVYSGWY[NMeF]LCGGGG-OH; thioether N-12),EC50,ASPC1,76.6 nM
same,EC50,JeKo-1,89 nM
same,EC50,HEK293,55.3 nM
same,EC50,786-0,63.7 nM
CC(C)C[C@@H]1NC(=O)[C@H](Cc2ccc(O)cc2)NC(=O)[C@H](Cc2ccccc2)NC(=O)CSC[C@@H](C(N)=O)NC(=O)[C@H](CC(C)C)NC(=O)[C@H](Cc2ccccc2)N(C)C(=O)[C@H](Cc2ccc(O)cc2)NC(=O)[C@H](Cc2c[nH]c3ccccc23)NC(=O)CNC(=O)[C@H](CO)NC(=O)[C@H](Cc2ccc(O)cc2)NC(=O)[C@H](C(C)C)NC1=O ({CH2CO}-FYLVYSGWY[NMeF]LC-NH2; thioether N-12),IC50,[1],7.2 nM
CC(C)C[C@@H]1NC(=O)[C@H](Cc2ccccc2)N(C)C(=O)[C@H](Cc2ccc(O)cc2)NC(=O)[C@H](Cc2c[nH]c3ccccc23)NC(=O)CNC(=O)[C@H](CO)NC(=O)[C@H](Cc2ccc(O)cc2)NC(=O)[C@H](C(C)C)NC(=O)[C@H](CCCNC(=N)N)NC(=O)[C@H](Cc2ccc(O)cc2)NC(=O)[C@H](Cc2ccccc2)NC(=O)CSC[C@@H](C(=O)NCC(N)=O)NC1=O ({CH2CO}-FYRVYSGWY[NMeF]LCG-NH2; thioether N-12),IC50,[1],6.3 nM

# From ChEMBL document CHEMBL5356977, “Exploration of macrocyclic peptide binders to the extracellular CRD domain of human receptor tyrosine kinase-like orphan receptor 1 (ROR1)” (Bioorg Med Chem Lett, 2024)
